Source: ChEMBL document CHEMBL1143685, “Sulfated glucosamine inhibits MMP-2 and MMP-9 expressions in human fibrosarcoma cells” (Bioorg Med Chem, 2007)
Calls of active or inactive are those of the source. No cut-off for these calls is given here.

How the values were obtained:
HT-1080 [1] = assay: Inhibition of PMA-stimulated activator protein-1 promotor activity in human HT1080 cells; type: functional, cell-based
HT-1080 [2] = assay: Inhibition of MMP2 expression in human HT1080 cells; type: functional, cell-based
HT-1080 [3] = assay: Inhibition of MMP9 expression in human HT1080 cells; type: functional, cell-based
MRC5 = assay: Toxicity against human MRC5 cells assessed as cell viability after 24 hrs by MTT assay; type: cell-based; conditions: mrc5, 24 h
HT-1080 [4] = assay: Toxicity against human HT1080 cells assessed as cell viability after 24 hrs by MTT assay; type: cell-based; conditions: ht-1080, 24 h
HT-1080 [5] = assay: Inhibition of NF-kappaB promoter activity in human HT1080 cells; type: functional, cell-based

For `N[C@@H](C=O)[C@@H](O)[C@H](O)[C@H](O)COS(=O)(=O)O`, the Activity (HT-1080 [1]) was “inactive”, the Activity (HT-1080 [2]) was “Dose-dependent effect” and the Activity (HT-1080 [3]) was “Dose-dependent effect”. The Activity (MRC5) was “Active”, the Activity (HT-1080 [4]) was “Active” and the Activity (HT-1080 [5]) was “Dose-dependent effect”.
